# Test results published in patent publication US9701707B2, “Methods of synthesizing substituted purine compounds” (Epizyme, Inc., priority 2013, dated 2017).
# Experiment: Solution photostability
# Type: physicochemical
# Procedure: Solution Photostability: Weighed ˜1 mg of Form B and dissolved in 3 solutions at different pHs (0.01 N HCl, 0.01 N NaOH and water). Methanol was added as a co-solvent to dissolve Form B in solutions (i.e., 10% (v/v) methanol in 0.01 N HCl, 20% (v/v) in water and 30% (v/v) in 0.01 N NaOH), the final concentration was 0.1 mg/mL. For each solution, 1 sample and 1 control covered in foil were put into the photo chamber for Vis study (2 vials total for each solution). Measure the concentration and monitor the degradation.
# [1] = 0.01N HCl Dark, Vis Stability (1.2 Mil lux-hours), final pH 2.1
# [2] = 0.01N HCl Dark, Vis-UV Stability (1.2 Mil lux-hours + 200 Watt-hours/m^2), final pH 2.1
# [3] = 0.01N HCl Light, Vis Stability (1.2 Mil lux-hours), final pH 2.1
# [4] = 0.01N HCl Light, Vis-UV Stability (1.2 Mil lux-hours + 200 Watt-hours/m^2), final pH 2.1
# [5] = 0.01N NaOH Dark, Vis Stability (1.2 Mil lux-hours), final pH 11.6, precipitation observed
# [6] = 0.01N NaOH Dark, Vis-UV Stability (1.2 Mil lux-hours + 200 Watt-hours/m^2), final pH 11.7, precipitation observed
# [7] = 0.01N NaOH Light, Vis Stability (1.2 Mil lux-hours), final pH 11.7, precipitation observed
# [8] = 0.01N NaOH Light, Vis-UV Stability (1.2 Mil lux-hours + 200 Watt-hours/m^2), final pH 11.7, precipitation observed
# [9] = H2O Dark, Vis Stability (1.2 Mil lux-hours), final pH 7.7
# [10] = H2O Dark, Vis-UV Stability (1.2 Mil lux-hours + 200 Watt-hours/m^2), final pH 8.1
# [11] = H2O Light, Vis Stability (1.2 Mil lux-hours), final pH 7.3
# [12] = H2O Light, Vis-UV Stability (1.2 Mil lux-hours + 200 Watt-hours/m^2), final pH 7.3
smiles,measurement,setting,value
"CC(C)N(C[C@H]1O[C@@H](n2cnc3c(N)ncnc32)[C@H](O)[C@@H]1O)[C@H]1C[C@@H](CCc2nc3cc(C(C)(C)C)ccc3[nH]2)C1 [Form B, (2R,3R,4S,5R)-2-(6-amino-9H-purin-9-yl)-5-((((1r,3S)-3-(2-(5-(tert-butyl)-1H-benzo[d]imidazol-2-yl)ethyl)cyclobutyl)(isopropyl)amino)methyl)tetrahydrofuran-3,4-diol trihydrate]",% area (100% − TRS%),[1],99.4%
same,% claim (Cs/Ci × 100%),[1],100.0%
same,% area (100% − TRS%),[2],99.9%
same,% claim (Cs/Ci × 100%),[2],100.0%
same,% area (100% − TRS%),[3],98.5%
same,% claim (Cs/Ci × 100%),[3],98.8%
same,% area (100% − TRS%),[4],99.9%
same,% claim (Cs/Ci × 100%),[4],99.9%
same,% area (100% − TRS%),[5],99.7%
same,% claim (Cs/Ci × 100%),[5],100.0%
same,% area (100% − TRS%),[6],100.0%
same,% claim (Cs/Ci × 100%),[6],100.0%
same,% area (100% − TRS%),[7],99.6%
same,% claim (Cs/Ci × 100%),[7],44.5%
same,% area (100% − TRS%),[8],99.3%
same,% claim (Cs/Ci × 100%),[8],66.3%
same,% area (100% − TRS%),[9],100.0%
same,% claim (Cs/Ci × 100%),[9],100.0%
same,% area (100% − TRS%),[10],100.0%
same,% claim (Cs/Ci × 100%),[10],100.0%
same,% area (100% − TRS%),[11],99.6%
same,% claim (Cs/Ci × 100%),[11],98.5%
same,% area (100% − TRS%),[12],99.3%
same,% claim (Cs/Ci × 100%),[12],94.7%
same,solution photostability,"in water and 0.01N HCl solution, exposure to UV/Vis",stable
